Test system: récepteurs 5HT - 3
Assay: Inhibition of the Bezold-Jarisch effect (reflex bradycardia after i.v. serotonin) in the anaesthetised rat
Assay type: in vivo
Text: Cette propriété est indicatrice d'un effet antagoniste des récepteurs 5HT - 3.
Cette étude est réalisée sur des rats Charles River d'un poids compris entre 350 et 400 g anesthésiés par une dose de 1,25 g.kg⁻¹ d'uréthanne administré intrapéritonéalement. La pression artérielle est enregistrée au niveau d'une artère carotide au moyen d'une cellule de pression Statham P 23 dB. La fréquence cardiaque est enregistrée à partir de la pression artérielle en utilisant un cardiotachymètre. Les enregistrements sont réalisés sur un enregistreur GOULD 2400. Un cathéter est placé dans la veine jugulaire et atteint l'oreillette droite de l'animal. L'effet Bezold-Jarisch est provoqué par une injection rapide de sérotonine à la dose de 40 µg/kg par voie intraveineuse dans l'oreillette droite. Le ralentissement cardiaque est associé à une chute de la pression artérielle qui provient de la stimulation des fibres afférentes vagales principalement localisées dans le ventricule droit.
Les produits à tester sont administrés par voie intraveineuse aux doses de 10 µg/kg, 100 µg/kg et 1 mg/kg. Un effet Bezold-Jarisch est provoqué 5, 15, 30, 45, 60, 90 et 120 minutes après injection des produits testés.
Le pourcentage d'inhibition de la bradycardie réflexe est évalué à partir du tracé de fréquence cardiaque. Les pourcentages d'inhibition provoqués par le produit de l'invention, ses isomères, des produits structuralement voisins, ainsi que par le produit de référence ICS 205930 sont indiqués dans le tableau I qui donne l'inhibition en % du réflexe Bezold chez le rat en fonction du temps; tous les produits ont été administrés par voie i.v à la même dose de 10 µg/kg.; les tests ont été réalisés sur 8 animaux.

Structure (SMILES) | effet Bezold-Jarisch (bradycardie et hypotension après injection de sérotonine) (rat, i.v., doses between 10 µg/kg and 1 mg/kg, result in words) | activité antagoniste 5HT₃ (summary in words, refers to tableau I) | Inhibition % après 15 min. (inhibition of reflex bradycardia (Bezold reflex), rat, i.v. 10 µg/kg, 15 min after injection, serotonin 40 µg/kg i.v., 8 animals) [%] | Inhibition % après 30 min. (inhibition of reflex bradycardia (Bezold reflex), rat, i.v. 10 µg/kg, 30 min after injection, serotonin 40 µg/kg i.v., 8 animals) [%] | Inhibition % après 60 min. (inhibition of reflex bradycardia (Bezold reflex), rat, i.v. 10 µg/kg, 60 min after injection, serotonin 40 µg/kg i.v., 8 animals) [%] | Inhibition % après 120 min. (inhibition of reflex bradycardia (Bezold reflex), rat, i.v. 10 µg/kg, 120 min after injection, serotonin 40 µg/kg i.v., 8 animals)
CN1C2CCC1CC(OC(=O)c1cccc3ccsc13)C2 (stereo not drawn) [Exemple 1, Chlorhydrate d'endo [(méthyl - 8 aza - 8 bicyclo [3.2.1]octyl - 3)oxycarbonyl] - 7 benzo [b] thiphène] | antagonise de façon intense et prolongée | actif |  |  |  | 
CN1[C@@H]2CC[C@H]1C[C@@H](OC(=O)c1c[nH]c3ccccc13)C2 [ICS 205-930] |  |  | 79 | 65 | 14 | inactif
